The values below come from paper PMC12563821 (International Journal of Molecular Sciences, 2025).

Each structure is given as a SMILES string.

One data set relates to T1, Sirt1.
T1 construct: includes amino acids 1–747 (C-terminal); His-tag (N); purchased Reaction Biology Corporation (Malvern, PA, USA), in-house enzyme of the contract laboratory; host or cells: E. coli
In words: Fluorescence-based Sirt1 subtype selectivity assay (Reaction Biology). To be noted: 50 µM inhibitor, duplicate, relative to no-inhibitor control. Format: biochemical. How it is done: (§1) The determination of the inhibitory potency and corresponding subtype selectivity of the synthesized hybrid candidates was performed by Reaction Biology Cooperation (Malvern, PA, USA) using a fluorescence-based assay (Table 1).
(§2) Sirtuin assays. The biological activity of the test substances against the respective sirtuin enzymes was evaluated by means of a fluorescence-based assay performed by Reaction Biology Corporation (Malvern, PA, USA). The sirtuin enzymes used in the assays were all obtained from in-house sources at Reaction Biology Corporation (Malvern, PA, USA). Sirt1, with accession number NM_012238, includes amino acids 1–747 (C-terminal) and is tagged with an N-terminal His-tag. Sirt1 was expressed in E. coli and purified to greater than 85% as confirmed by SDS-PAGE and is supplied as a solution in 50 mM Tris/HCl (pH 7.5), 100 mM NaCl, and 10% glycerol (v/v). Sirt2 (accession number NM_012237), comprising amino acids 50–389 (C-terminal), features an N-terminal His-tag and was expressed in E. coli and finally purified to over 90% by SDS-PAGE. Sirt2 is provided in a buffer containing 50 mM Tris/HCl (pH 7.5), 500 mM NaCl, 1 mM TCEP, and 10% glycerol (v/v). Sirt3, with accession number NM_012239.3, spans amino acids 101–399 and is tagged with an N-terminal GST and expressed in E. coli and purified to greater than 85% purity by SDS-PAGE. Sirt3 is supplied in 50 mM Tris/HCl (pH 7.5), 500 mM NaCl, and 10% glycerol (v/v). Sirt5 (accession number NM_012241), consisting of amino acids 37–310 (C-terminal) and tagged with an N-terminal His-tag, was expressed in E. coli, purified to greater than 95% purity by SDS-PAGE and delivered as a solution in 50 mM Tris/HCl (pH 7.5), 500 mM NaCl, 1 mM TCEP, and 10% glycerol (v/v). All proteins were provided in purified forms for use in the assays. The respective internal assay protocol is outlined in the following: After the test substances (dissolved in DMSO) were incubated with the desired sirtuin enzyme in assay buffer (Tris-HCl, pH = 8) for 10 min at 30 °C, a substrate mixture consisting of a 7-amino-4-methylcoumarin-linked fluorogenic peptide substrate (p53 residues 379–382) and the cofactor NAD^+ was added. After 2 h of incubation at 30 °C, the universal inhibitor nicotinamide was added in excess to completely stop the deacetylation reaction, followed by the addition of a protease-based developer to release 7-amino-4-methylcoumarin, resulting in characteristic fluorescence, which was measured after 1 h at 30 °C (excitation/emission = 360/460). A no-inhibitor control was implemented, serving as a reference for 100% enzyme activity. […] Three individual IC50 values per test compound were calculated from the corresponding three dilution series fluorescence data using sigmoidal curve fitting in Prism 8.0.2 (GraphPad Software, Boston, MA, USA), and these were averaged to determine the mean IC50 value along with the standard deviation. To assess the selectivity against Sirt1, Sirt3, and Sirt5, a 50 µM concentration of the test compound was tested in duplicate, and the inhibitory activity was expressed as the mean of the duplicates in percentage of enzyme activity, including standard deviation, relative to the no-inhibitor control (representative 100% enzyme activity).

The target of another data set is T2, Sirt2 (Homo sapiens, UniProt Q8IXJ6).
T2 construct: comprising amino acids 50–389 (C-terminal); His-tag (N); purchased Reaction Biology Corporation (Malvern, PA, USA), in-house enzyme of the contract laboratory; host or cells: E. coli
T2 sequence (Q8IXJ6 50-389): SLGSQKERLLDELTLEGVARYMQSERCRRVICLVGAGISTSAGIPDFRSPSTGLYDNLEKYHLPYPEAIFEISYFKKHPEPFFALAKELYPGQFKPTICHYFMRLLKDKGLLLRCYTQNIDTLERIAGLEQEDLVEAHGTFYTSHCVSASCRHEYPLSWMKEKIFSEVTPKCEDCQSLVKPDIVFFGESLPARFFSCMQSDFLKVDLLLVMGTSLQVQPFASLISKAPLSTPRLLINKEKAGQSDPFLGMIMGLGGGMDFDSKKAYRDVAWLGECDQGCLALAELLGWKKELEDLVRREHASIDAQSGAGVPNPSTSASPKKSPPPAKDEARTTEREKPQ
In words: Fluorescence-based Sirt2 deacetylase inhibition assay (Reaction Biology). The conditions noted are these: mean ± SD of three dilution series, fluorescence-based assay; read-out: IC50 [µM] ± SD Sirt2. Format: biochemical. How it is done:
as §1
Sirtuin assays. The biological activity of the test substances against the respective sirtuin enzymes was evaluated by means of a fluorescence-based assay performed by Reaction Biology Corporation (Malvern, PA, USA). The sirtuin enzymes used in the assays were all obtained from in-house sources at Reaction Biology Corporation (Malvern, PA, USA). […] Sirt2 is provided in a buffer containing 50 mM Tris/HCl (pH 7.5), 500 mM NaCl, 1 mM TCEP, and 10% glycerol (v/v). […] Sirt3 is supplied in 50 mM Tris/HCl (pH 7.5), 500 mM NaCl, and 10% glycerol (v/v). […] All proteins were provided in purified forms for use in the assays. […] After 2 h of incubation at 30 °C, the universal inhibitor nicotinamide was added in excess to completely stop the deacetylation reaction, followed by the addition of a protease-based developer to release 7-amino-4-methylcoumarin, resulting in characteristic fluorescence, which was measured after 1 h at 30 °C (excitation/emission = 360/460). A no-inhibitor control was implemented, serving as a reference for 100% enzyme activity. […] Three individual IC50 values per test compound were calculated from the corresponding three dilution series fluorescence data using sigmoidal curve fitting in Prism 8.0.2 (GraphPad Software, Boston, MA, USA), and these were averaged to determine the mean IC50 value along with the standard deviation. To assess the selectivity against Sirt1, Sirt3, and Sirt5, a 50 µM concentration of the test compound was tested in duplicate, and the inhibitory activity was expressed as the mean of the duplicates in percentage of enzyme activity, including standard deviation, relative to the no-inhibitor control (representative 100% enzyme activity).

The nature of data set [1]: MTT-based cell viability assay. Details: species or system human. To be noted: human; HL-60 cells, 24 h incubation, MTT; read-out: IC50 acute cytotoxicity. How it is done:
The SirReal-based Sirt2 inhibitors (FM345, FM352, FM358, FM368, RW-93, RW-95 and RW-99) were tested for potential acute cytotoxicity to human cells in an MTT-based cell viability assay. […] HL-60 cells were treated with the corresponding Sirt2 inhibitors at various concentrations and then incubated for 24 h. […] Representative cell viability results following treatment with RW-93 are shown in Figure S1 of the Supplementary Materials.
Cell viability assay. The cytotoxicity of the Sirt2 inhibitors was determined using a colorimetric MTT assay following Mosmann’s protocol. HL-60 cells (purchased from DSMZ (German Collection of Microorganisms and Cell Cultures, Deutsche Sammlung von Mikroorganismen und Zellkulturen GmbH, Braunschweig, Germany) were cultivated in RPMI medium with 10% fetal bovine serum at 37 °C with 5% CO2 atmosphere. The cells were then seeded in a 96-well plate with a concentration of 9 x 10^4 cells/well and a well volume of 99 µL. The cells were further incubated at 37 °C with 5% CO2 atmosphere for 24 h. The cells were then treated with 1 µL solution of Sirt2 inhibitors in various concentrations, which were prepared from 10 mM or 20 mM DMSO stock solutions. Negative controls were treated with 1 µL DMSO and positive controls with 1 µL of 1% Triton-X solution. Three technical replicates were performed. After incubation for 24 h, 10 µL MTT (5.0 mg/mL in PBS) were added to each well and the cells were incubated at 37 °C with 5% CO2 atmosphere for 2 h. Then 190 µL DMSO were added to each well and the plate shaken at room temperature at 600 rpm for 1 h with light exclusion. The absorbance of the MTT metabolite formazan was measured at 570 nm using the MRX Microplate Reader (Dynex Technologies, Chantilly, VA, USA). The means of the corresponding triplicates were calculated and set in relation to the 1% DMSO negative controls. The data was processed using Prism 8.0.2 (GraphPad Software, Boston, MA, USA) software and a logarithmic sigmoidal curve fitting for the calculation of the respective IC50 values was performed.

For the next data set, the system named is T3, Sirt5.
T3 construct: consisting of amino acids 37–310 (C-terminal); His-tag (N); purchased Reaction Biology Corporation (Malvern, PA, USA), in-house enzyme of the contract laboratory; host or cells: E. coli
In words: Fluorescence-based Sirt5 subtype selectivity assay (Reaction Biology). The data set is classed as biochemical. The conditions noted are these: 50 µM inhibitor, duplicate, relative to no-inhibitor control. How it is done:
as §1, §2

In another data set the test system is T4, Sirt3.
T4 construct: spans amino acids 101–399; GST (N); purchased Reaction Biology Corporation (Malvern, PA, USA), in-house enzyme of the contract laboratory; host or cells: E. coli
In words: Fluorescence-based Sirt3 subtype selectivity assay (Reaction Biology). Format: biochemical. To be noted: 50 µM inhibitor, duplicate, relative to no-inhibitor control. The protocol:
as §1, §2

The next data set concerns HL-60 cell line. Details: method as in PMID 35441145. To be noted: cited from earlier work.

For `Cc1cc(C)nc(SCC(=O)Nc2ncc(COc3ccc(NC(=O)c4cnn(C)c4)c(Cl)c3)s2)n1` [RW-99, N-(2-Chloro-4-((2-(2-((4,6-dimethylpyrimidin-2-yl)thio)acetamido)thiazol-5-yl)methoxy)phenyl)-1-methyl-1H-pyrazole-4-carboxamide], in the data set with Sirt1, the “Residual Enzyme Activity [%] ± SD Sirt1” value stood at 53.9 ± 0.2%. Moreover, the IC50 on Sirt2 is 0.025 ± 0.0026 µM. Also, in data set [1], the IC50 at 24 h is greater than 50000 nM. The “Residual Enzyme Activity [%] ± SD Sirt5” value with Sirt5 worked out at 55.1 ± 2.0%. The “Residual Enzyme Activity [%] ± SD Sirt3” value with Sirt3 stood at 56.1 ± 0.1%.

Consider `Cc1cc(C)nc(SCC(=O)Nc2ncc(Cc3cccc4ccccc34)s2)n1` [SirReal2], for which the “toxicity in HL-60 cell line” value with HL-60 cell line is “not toxic”.

The term IC50 denotes the concentration that inhibits the measured activity by half.
